Data on 21 compounds can be found in patent US20230000870A1, “METHODS OF TREATING CANCER IN BIOMARKER-IDENTIFIED PATIENTS WITH INHIBITORS OF CYCLIN-DEPENDENT KINASE 7 (CDK7)” (Syros Pharmaceuticals, Inc., priority 2019, published 2023).

For one test, the target named is CDK2/Cyclin E1 complex (Homo sapiens, UniProt P24941). Description: CDK2 kinase inhibition assay (Caliper/LabChip EZ Reader). To be noted: CDK2/Cyclin E1 0.5 nM, ATP 2 mM, 35 min at 27° C. Type of test: biochemical. The method, boiled down:
(§1)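 Caliper/LabChip mobility-shift kinase assays at 27° C. CDK9/Cyclin T1 8 nM with 2 μM 5-FAM-CDK9tide, 10 mM MgCl2, 15 min; CDK12/Cyclin K 50 nM with 5-FAM-CDK9tide 2 μM, 2 mM MgCl2, 3 hr; CDK2/Cyclin E1 0.5 nM with 5-FAM-CDK7tide 2 μM, 2 mM MgCl2, 35 min; CDK7 35 min.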

Test [1] deals with CDK7/Cyclin H/MAT1 complex (Homo sapiens, UniProt P50613). The test is described as follows: CDK7 kinase inhibition assay (Caliper/LabChip EZ Reader). The note with it: CDK7/Cyclin H/MAT1 6 nM, ATP 2 mM, 35 min at 27° C. Type of test: biochemical. The method, boiled down: as §1
In the next test the target is CDK9/Cyclin T1 complex (Homo sapiens, UniProt P50750). The test is described as follows: CDK9 kinase inhibition assay (Caliper/LabChip EZ Reader). Type of test: biochemical. The note with it: CDK9/Cyclin T1 8 nM, ATP 2 mM, 15 min at 27° C. The method, boiled down: as §1
Test [2] has as its target T1, CDK12 (aa686-1082)/Cyclin K complex (Homo sapiens, UniProt Q9NYV4).
T1 construct: CDK12 (aa686-1082)/Cyclin K complex
Description: CDK12 kinase inhibition assay (Caliper/LabChip EZ Reader). In kind it is biochemical. The note with it: CDK12 (aa686-1082)/Cyclin K 50 nM, ATP 2 mM, 3 hr at 27° C. The method in brief:
as §1

For another test, the system named is A673 cells. Description: Inhibition of proliferation of A673 cells (CyQUANT, 72 hour). In kind it is cell-based, human. To be noted: read-out: Inhibition of Proliferation of A673 Cells (calculated IC50). The method in brief:
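Human Ewing's sarcoma A673 cells in DMEM + 10% FBS + 1 mM sodium pyruvate, 37 °C, 5% CO2. Compounds in 0.5-log serial dilutions, stated range 4 μM to […], for 72 h. Anti-proliferative effect read with CyQUANT per kit directions.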

For the next test, the system named is HCC70 cells. The test is described as follows: Inhibition of proliferation of HCC70 cells (CyQUANT Direct, 72 hour). In kind it is cell-based, human. To be noted: read-out: Inhibition of Proliferation of HCC70 Cells (calculated IC50). The method, boiled down: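 Human triple-negative breast cancer cells grown in RPMI-1640 + 10% FBS at 37 °C, 5% CO2, treated with compounds from 4 μM to […] in 0.5 log steps. Proliferation over 72 h was read by CyQUANT Direct.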

Where only a bound is given, the exact number is not on record here.

T1 sequence (Q9NYV4 686-1082): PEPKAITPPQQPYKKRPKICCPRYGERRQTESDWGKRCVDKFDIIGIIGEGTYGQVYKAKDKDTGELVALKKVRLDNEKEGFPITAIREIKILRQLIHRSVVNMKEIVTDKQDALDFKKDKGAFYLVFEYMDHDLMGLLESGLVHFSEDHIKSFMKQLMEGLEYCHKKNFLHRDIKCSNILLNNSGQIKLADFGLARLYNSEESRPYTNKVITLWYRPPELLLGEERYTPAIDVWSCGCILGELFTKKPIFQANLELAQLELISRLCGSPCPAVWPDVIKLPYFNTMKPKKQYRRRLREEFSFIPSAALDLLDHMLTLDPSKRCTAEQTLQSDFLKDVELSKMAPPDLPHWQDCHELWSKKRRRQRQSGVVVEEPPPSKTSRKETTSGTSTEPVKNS
T1 sequence (O75909 whole entry partner, the tested form may be a part): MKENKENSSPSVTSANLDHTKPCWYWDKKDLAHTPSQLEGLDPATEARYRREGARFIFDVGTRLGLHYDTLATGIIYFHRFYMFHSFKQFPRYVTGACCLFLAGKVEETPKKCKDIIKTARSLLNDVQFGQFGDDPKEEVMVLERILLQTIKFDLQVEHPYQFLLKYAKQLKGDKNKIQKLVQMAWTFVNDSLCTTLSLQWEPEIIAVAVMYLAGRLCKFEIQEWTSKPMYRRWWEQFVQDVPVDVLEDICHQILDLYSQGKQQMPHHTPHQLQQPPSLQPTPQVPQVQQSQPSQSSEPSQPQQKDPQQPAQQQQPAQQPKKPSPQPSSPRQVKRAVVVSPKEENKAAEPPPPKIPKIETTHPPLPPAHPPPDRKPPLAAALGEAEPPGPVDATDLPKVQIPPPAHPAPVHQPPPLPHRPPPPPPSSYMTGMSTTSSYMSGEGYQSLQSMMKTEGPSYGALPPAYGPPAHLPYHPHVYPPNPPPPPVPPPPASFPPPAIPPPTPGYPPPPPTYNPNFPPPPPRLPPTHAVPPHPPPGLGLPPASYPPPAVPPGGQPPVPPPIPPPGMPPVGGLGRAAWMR
Sequence of CDK7/Cyclin H/MAT1 complex (P50613 whole entry): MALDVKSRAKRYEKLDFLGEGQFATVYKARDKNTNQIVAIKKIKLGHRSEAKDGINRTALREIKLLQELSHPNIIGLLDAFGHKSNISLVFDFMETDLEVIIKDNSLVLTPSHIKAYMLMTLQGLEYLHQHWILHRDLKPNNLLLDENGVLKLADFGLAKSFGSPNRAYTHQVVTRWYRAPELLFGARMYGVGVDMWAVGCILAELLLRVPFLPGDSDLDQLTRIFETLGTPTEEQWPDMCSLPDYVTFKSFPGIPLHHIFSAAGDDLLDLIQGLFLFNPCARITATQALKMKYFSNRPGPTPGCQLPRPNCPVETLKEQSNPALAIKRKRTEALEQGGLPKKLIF
Sequence of CDK7/Cyclin H/MAT1 complex (P51946 whole entry partner): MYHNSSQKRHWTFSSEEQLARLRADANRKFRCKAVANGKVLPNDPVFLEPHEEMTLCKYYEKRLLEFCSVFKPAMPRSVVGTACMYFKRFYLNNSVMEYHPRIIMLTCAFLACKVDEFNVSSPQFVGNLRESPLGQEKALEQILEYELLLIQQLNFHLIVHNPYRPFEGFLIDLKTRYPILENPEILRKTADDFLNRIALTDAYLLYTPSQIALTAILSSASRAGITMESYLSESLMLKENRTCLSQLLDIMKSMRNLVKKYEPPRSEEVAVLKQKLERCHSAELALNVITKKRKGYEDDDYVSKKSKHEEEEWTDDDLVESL
Sequence of CDK7/Cyclin H/MAT1 complex (P51948 whole entry partner): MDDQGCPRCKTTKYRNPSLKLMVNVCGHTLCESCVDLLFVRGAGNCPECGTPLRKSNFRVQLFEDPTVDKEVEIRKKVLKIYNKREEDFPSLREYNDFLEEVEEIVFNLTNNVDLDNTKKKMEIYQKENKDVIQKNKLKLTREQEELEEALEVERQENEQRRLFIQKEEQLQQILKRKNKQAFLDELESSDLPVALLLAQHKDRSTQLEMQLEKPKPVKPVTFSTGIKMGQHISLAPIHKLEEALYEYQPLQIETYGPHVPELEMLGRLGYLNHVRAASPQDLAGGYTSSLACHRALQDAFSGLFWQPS
Sequence of CDK9/Cyclin T1 complex (P50750 whole entry, the tested form may be a part): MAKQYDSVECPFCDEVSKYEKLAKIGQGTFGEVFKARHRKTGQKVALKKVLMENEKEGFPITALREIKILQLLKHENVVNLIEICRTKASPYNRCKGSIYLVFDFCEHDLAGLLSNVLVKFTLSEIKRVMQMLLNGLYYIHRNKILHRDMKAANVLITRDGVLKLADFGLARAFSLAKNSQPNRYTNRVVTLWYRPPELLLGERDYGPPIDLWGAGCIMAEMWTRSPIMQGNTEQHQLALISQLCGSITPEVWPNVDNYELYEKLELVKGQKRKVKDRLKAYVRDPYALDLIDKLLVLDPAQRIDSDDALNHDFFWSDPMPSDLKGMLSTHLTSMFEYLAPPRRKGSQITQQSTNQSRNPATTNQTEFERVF
Sequence of CDK9/Cyclin T1 complex (O60563 whole entry partner, the tested form may be a part): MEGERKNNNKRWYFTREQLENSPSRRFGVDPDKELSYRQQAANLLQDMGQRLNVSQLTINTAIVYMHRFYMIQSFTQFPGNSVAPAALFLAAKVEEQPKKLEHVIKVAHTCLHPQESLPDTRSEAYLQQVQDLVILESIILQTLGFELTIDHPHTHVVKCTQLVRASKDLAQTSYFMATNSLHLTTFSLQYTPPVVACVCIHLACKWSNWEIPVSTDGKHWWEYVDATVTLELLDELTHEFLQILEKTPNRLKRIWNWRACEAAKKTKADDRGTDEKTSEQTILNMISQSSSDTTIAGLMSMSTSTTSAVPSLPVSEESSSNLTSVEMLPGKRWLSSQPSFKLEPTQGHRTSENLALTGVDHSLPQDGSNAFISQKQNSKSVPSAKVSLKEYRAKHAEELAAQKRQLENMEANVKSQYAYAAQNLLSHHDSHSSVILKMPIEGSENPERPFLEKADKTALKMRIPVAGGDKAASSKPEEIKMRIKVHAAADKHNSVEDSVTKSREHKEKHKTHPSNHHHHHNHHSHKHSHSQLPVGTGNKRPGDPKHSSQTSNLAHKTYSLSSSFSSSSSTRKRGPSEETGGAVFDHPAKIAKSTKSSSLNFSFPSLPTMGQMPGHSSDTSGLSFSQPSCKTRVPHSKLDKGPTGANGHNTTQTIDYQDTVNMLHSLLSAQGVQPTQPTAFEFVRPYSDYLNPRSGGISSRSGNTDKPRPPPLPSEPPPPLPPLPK

Turning to `CC1(O)CCN(C(=O)c2ccc3c(-c4nc(NC5CCCNC5)ncc4C(F)(F)F)c[nH]c3c2)C1` (stereo not drawn) [Compound 221], the IC50 against CDK2/Cyclin E1 complex is at least 5000 nM; in test [1], below 20 nM; against CDK9/Cyclin T1 complex, at least 5000 nM; in test [2] it was at least 5000 nM; with A673 cells, 200 to 5000 nM; with HCC70 cells, 100 to 1000 nM.
In the case of `FC(F)(F)c1cnc(NC2CCCNC2)nc1-c1n[nH]c2ccccc12` (stereo not drawn) [Compound 103], the IC50 on CDK2/Cyclin E1 complex is 200 to 5000 nM; in test [1], below 20 nM; against CDK9/Cyclin T1 complex, 200 to 5000 nM; in test [2] it was 20 to 200 nM; in the test with A673 cells it was 20 to 200 nM; in the test with HCC70 cells it was below 100 nM.
For the compound `FC(F)(F)c1cnc(NC2CNCC(c3nnc4ccccn34)C2)nc1-c1c[nH]c2ccccc12` (stereo not drawn) [Compound 267], the IC50 is 200 to 5000 nM against CDK2/Cyclin E1 complex; 20 to 200 nM in test [1]; 200 to 5000 nM at CDK9/Cyclin T1 complex; 200 to 5000 nM in test [2]; below 20 nM in the test with A673 cells; below 100 nM in the test on HCC70 cells.
`FC(F)n1cc(-c2ccc3c(-c4nc(NC5CCCNC5)ncc4C(F)(F)F)c[nH]c3c2)cn1` (stereo not drawn) [Compound 290]: the IC50 against CDK2/Cyclin E1 complex was 200 to 5000 nM; in test [1], 20 to 200 nM; on CDK9/Cyclin T1 complex it was 200 to 5000 nM; in test [2] it was 200 to 5000 nM; with A673 cells, 20 to 200 nM; with HCC70 cells, 100 to 1000 nM.
Consider `CCc1cnc(NC2CCCNC2)nc1-c1c[nH]c2c(S(C)(=O)=O)c(C#N)ccc12` (stereo not drawn) [Compound 263], for which the IC50 was at least 5000 nM at CDK2/Cyclin E1 complex; below 20 nM in test [1]; at least 5000 nM on CDK9/Cyclin T1 complex; at least 5000 nM in test [2]; 20 to 200 nM in the test on A673 cells; 100 to 1000 nM in the test on HCC70 cells.
For `CC1CCNCC1Nc1ncc(C(F)(F)F)c(-c2c[nH]c3ccccc23)n1` (stereo not drawn) [Compound 285], the IC50 on CDK2/Cyclin E1 complex is at least 5000 nM; in test [1], 200 to 5000 nM; on CDK9/Cyclin T1 complex, at least 5000 nM; in test [2] it was at least 5000 nM; with A673 cells, below 20 nM; in the test on HCC70 cells, below 100 nM.
Regarding `COCn1cc(-c2nc(NC3CCCNC3)ncc2C(F)(F)F)c2ccc(C#N)nc21` (stereo not drawn) [Compound 283], the IC50 at CDK2/Cyclin E1 complex is at least 5000 nM; in test [1], 200 to 5000 nM; on CDK9/Cyclin T1 complex it was at least 5000 nM; in test [2], at least 5000 nM; with A673 cells, 200 to 5000 nM; in the test with HCC70 cells, 1000 to 5000 nM.
Consider `FC(F)(F)c1cnc(NC2CCCNC2)nc1-c1c[nH]c2c(-c3ccnnc3)cccc12` (stereo not drawn) [Compound 180], for which the IC50 against CDK2/Cyclin E1 complex was 20 to 200 nM; in test [1] it was below 20 nM; against CDK9/Cyclin T1 complex it was 200 to 5000 nM; in test [2], 20 to 200 nM; with A673 cells it was below 20 nM; with HCC70 cells, below 100 nM.
Consider `N#Cc1ccc2c(-c3nc(N[C@@H]4CCCNC4)ncc3C(F)(F)F)c[nH]c2c1-c1ccnnc1` [Compound 261], for which the IC50 is 200 to 5000 nM on CDK2/Cyclin E1 complex; 20 to 200 nM in test [1]; 200 to 5000 nM against CDK9/Cyclin T1 complex; 200 to 5000 nM in test [2]; below 20 nM in the test with A673 cells; below 100 nM in the test with HCC70 cells.
On to `N#Cc1ccc2c(-c3nc(NC4CCCNC4)ncc3C(F)(F)F)c[nH]c2n1` (stereo not drawn) [Compound 251], for which the IC50 on CDK2/Cyclin E1 complex is 200 to 5000 nM; in test [1], below 20 nM; against CDK9/Cyclin T1 complex, 200 to 5000 nM; in test [2] it was 200 to 5000 nM; in the test on A673 cells, below 20 nM; in the test on HCC70 cells, below 100 nM.
Regarding `FC(F)(F)c1cnc(NC2CCCNC2)nc1-c1c[nH]c2cc(-c3cc[nH]n3)ccc12` (stereo not drawn) [Compound 291], the IC50 is 200 to 5000 nM at CDK2/Cyclin E1 complex; below 20 nM in test [1]; 200 to 5000 nM against CDK9/Cyclin T1 complex; 200 to 5000 nM in test [2]; 20 to 200 nM in the test with A673 cells; 100 to 1000 nM in the test with HCC70 cells.
In the case of `CC(C)c1cnc(NC2CCCNC2)nc1-c1c[nH]c2ccccc12` (stereo not drawn) [Compound 139], the IC50 was at least 5000 nM against CDK2/Cyclin E1 complex; 20 to 200 nM in test [1]; at least 5000 nM against CDK9/Cyclin T1 complex; at least 5000 nM in test [2]; 200 to 5000 nM in the test with A673 cells; 1000 to 5000 nM with HCC70 cells.
Regarding `Cn1cc(-c2nc(NC3CCCNC3)ncc2C(F)(F)F)c2cccc(C#N)c21` (stereo not drawn) [Compound 279], the IC50 against CDK2/Cyclin E1 complex is at least 5000 nM; in test [1], 20 to 200 nM; against CDK9/Cyclin T1 complex it was at least 5000 nM; in test [2], at least 5000 nM; with A673 cells it was 200 to 5000 nM; in the test on HCC70 cells it was 1000 to 5000 nM.
`Fc1ccc2[nH]cc(-c3nc(NC4CCCNC4)ncc3Cl)c2c1` (stereo not drawn) [Compound 109]: the IC50 at CDK2/Cyclin E1 complex was 200 to 5000 nM; in test [1], below 20 nM; at CDK9/Cyclin T1 complex, 200 to 5000 nM; in test [2], 20 to 200 nM; in the test on A673 cells, 20 to 200 nM; in the test with HCC70 cells, 100 to 1000 nM.
As to `FC(F)(F)c1cnc(NC2CCCNC2)nc1-c1c[nH]c2cnc(Cl)cc12` (stereo not drawn) [Compound 165], the IC50 was 200 to 5000 nM against CDK2/Cyclin E1 complex; below 20 nM in test [1]; 200 to 5000 nM on CDK9/Cyclin T1 complex; 200 to 5000 nM in test [2]; 20 to 200 nM in the test with A673 cells; 100 to 1000 nM in the test with HCC70 cells.
On to `Cc1cccc2c(-c3nc(NC4CCCNC4)ncc3Cl)c[nH]c12` (stereo not drawn) [Compound 112], for which the IC50 against CDK2/Cyclin E1 complex is 200 to 5000 nM; in test [1] it was below 20 nM; against CDK9/Cyclin T1 complex, 200 to 5000 nM; in test [2], 20 to 200 nM; in the test with A673 cells, below 20 nM; with HCC70 cells, below 100 nM.
For `OC1CCC(c2cccc3c(-c4nc(NC5CCCNC5)ncc4C(F)(F)F)c[nH]c23)CC1` (stereo not drawn) [Compound 185], the IC50 was 20 to 200 nM on CDK2/Cyclin E1 complex; below 20 nM in test [1]; 200 to 5000 nM against CDK9/Cyclin T1 complex; 200 to 5000 nM in test [2]; below 20 nM in the test on A673 cells; below 100 nM in the test with HCC70 cells.
Take `Fc1cnc2[nH]cc(-c3nc(NC4CCCNC4)ncc3C(F)(F)F)c2c1` (stereo not drawn) [Compound 166]: the IC50 at CDK2/Cyclin E1 complex is 20 to 200 nM; in test [1] it was below 20 nM; against CDK9/Cyclin T1 complex it was 200 to 5000 nM; in test [2], 200 to 5000 nM; in the test on A673 cells, below 20 nM; with HCC70 cells, below 100 nM.
Turning to `CCc1cnc(NC2CCCNC2)nc1-c1c[nH]c2cc(C#N)ccc12` (stereo not drawn) [Compound 246], the IC50 is at least 5000 nM at CDK2/Cyclin E1 complex; below 20 nM in test [1]; at least 5000 nM against CDK9/Cyclin T1 complex; at least 5000 nM in test [2]; 200 to 5000 nM in the test with A673 cells; 100 to 1000 nM with HCC70 cells.
For the compound `CCc1cnc(NC2CCCNC2)nc1-c1c[nH]c2nc(C#N)ccc12` (stereo not drawn) [Compound 287], the IC50 is at least 5000 nM at CDK2/Cyclin E1 complex; below 20 nM in test [1]; at least 5000 nM on CDK9/Cyclin T1 complex; at least 5000 nM in test [2]; 20 to 200 nM in the test on A673 cells; 100 to 1000 nM in the test on HCC70 cells.
For `Clc1cnc(NC2CCCNC2)nc1-c1c[nH]c2ncccc12` (stereo not drawn) [Compound 118], the IC50 against CDK2/Cyclin E1 complex is 200 to 5000 nM; in test [1], below 20 nM; against CDK9/Cyclin T1 complex, 200 to 5000 nM; in test [2], 20 to 200 nM; in the test with A673 cells it was 20 to 200 nM; in the test with HCC70 cells, below 100 nM.
